Here are results for four compounds from US20240287066A1, “Crystalline Form of Sotorasib” (Sandoz AG, priority 2021, published 2024).

The nature of data set [1]: Powder dissolution in acetate buffer pH 4.5 and phosphate buffer pH 6.8. As to conditions: for phase change by PXRD during the dissolution experiments: acetate buffer pH 4.5 and phosphate buffer pH 6.8, 37° C., up to 24 hours; for solubility compared to crystalline Form I (in words): 15 minutes to 24 hours. In kind it is physicochemical. The method, then: Powder dissolution experiments were carried out at a temperature of 37° C. in acetate buffer pH 4.5 and phosphate buffer pH 6.8 for the crystalline Form I of sotorasib disclosed in WO 2020/236947 A1 and the crystalline Form A of sotorasib of the present invention. Particle sizes of both forms were kept as similar as possible to allow for proper comparison. The respective concentrations were determined at a wavelength of 293 nm in case of the acetate buffer and at 354 nm in case of the phosphate buffer.

For data set [2] the following is noted: cited from earlier work; for Mass increase from 0-90% RH at 25° C.: GMS, data from paragraph [0334] on page 46 of WO 2020/236947 A1; for hygroscopic behaviour (in words): GMS data of WO 2020/236947 A1, 0-90% RH, 25° C.
The nature of data set [3]: Gravimetric moisture sorption (GMS) of sotorasib Form A. The class given is physicochemical. The procedure:
Gravimetric moisture sorption was performed with an SPSx-1μ moisture sorption analyzer (ProUmid, Ulm). The measurement cycle was started at ambient relative humidity (RH) of 40%. RH was then decreased to 5% in 5% steps, followed by a further decrease to 3% and to 0%. […] Finally, RH was increased to ambient relative humidity of 40% in 5% steps. The time per step was set to a minimum of 2 hours and a maximum of 6 hours. If an equilibrium condition with a constant mass of ±0.01% within 1 hour was reached before the maximum time for all examined samples the sequential humidity step was applied before the maximum time of 6 hours. If no equilibrium was achieved the consecutive humidity step was applied after the maximum time of 6 hours. The temperature was (25±0.1)° C.

The nature of data set [4]: Stress stability (temperature and humidity stress, PXRD read-out). In kind it is physicochemical. The conditions noted are these: for solid form by PXRD after stress storage: 30 weeks, open stored in glass vials. From the text:
Sotorasib Form A of the present invention was subjected to various temperature and humidity stress conditions for 30 weeks as outlined in Table 3 below. The samples were open stored in glass vials.

Like-named read-outs stand apart in the source and are kept apart here.

For the compound `C=CC(=O)N1CCN(c2nc(=O)n(-c3c(C)ccnc3C(C)C)c3nc(-c4c(O)cccc4F)c(F)cc23)[C@@H](C)C1` [Form I of WO 2020/236947 A1, 6-fluoro-7-(2-fluoro-6-hydroxyphenyl)-1-(4-methyl-2-(2-propanyl)-3-pyridinyl)-4-((2S)-2-methyl-4-(2-propenoyl)-1-piperazinyl)pyrido[2,3-d]pyrimidin-2(1H)-one], in data set [1], the “phase change by PXRD during the dissolution experiments” value is “no phase changes occurred”. Besides, the “Mass increase from 0-90% RH at 25° C.” value was “+0.5-1.0% ^” in data set [2] and 0.5-1.0% in data set [2] (listed as Form I).
Turning to `C=CC(=O)N1CCN(c2nc(=O)n(-c3c(C)ccnc3C(C)C)c3nc(-c4c(O)cccc4F)c(F)cc23)[C@@H](C)C1` [Form II of WO 2020/236947 A1, 6-fluoro-7-(2-fluoro-6-hydroxyphenyl)-1-(4-methyl-2-(2-propanyl)-3-pyridinyl)-4-((2S)-2-methyl-4-(2-propenoyl)-1-piperazinyl)pyrido[2,3-d]pyrimidin-2(1H)-one], in data set [2], the “hygroscopic behaviour (in words)” value is listed as “hygroscopic” and the “Mass increase from 0-90% RH at 25° C.” value is reported as “+2-2.5%^”.
Consider `C=CC(=O)N1CCN(c2nc(=O)n(-c3c(C)ccnc3C(C)C)c3nc(-c4c(O)cccc4F)c(F)cc23)[C@@H](C)C1` [Form III of WO 2020/236947 A1, 6-fluoro-7-(2-fluoro-6-hydroxyphenyl)-1-(4-methyl-2-(2-propanyl)-3-pyridinyl)-4-((2S)-2-methyl-4-(2-propenoyl)-1-piperazinyl)pyrido[2,3-d]pyrimidin-2(1H)-one], for which, in data set [2], the “hygroscopic behaviour (in words)” value is reported as “hygroscopic” and the “Mass increase from 0-90% RH at 25° C.” value is listed as “+7.0%”.
For `C=CC(=O)N1CCN(c2nc(=O)n(-c3c(C)ccnc3C(C)C)c3nc(-c4c(O)cccc4F)c(F)cc23)[C@@H](C)C1` [Sotorasib Form A, 6-fluoro-7-(2-fluoro-6-hydroxyphenyl)-1-(4-methyl-2-(2-propanyl)-3-pyridinyl)-4-((2S)-2-methyl-4-(2-propenoyl)-1-piperazinyl)pyrido[2,3-d]pyrimidin-2(1H)-one], the “hygroscopic behaviour (in words)” value in data set [3] (GMS, 0-90% RH, 25° C.) was “slightly hygroscopic”. In addition, the “mass difference in the sorption cycle between 0 and 90% RH” value in data set [3] (GMS, 0-90% RH, (25±0.1)° C.) is given as “about 0.4 w-%”. For the same compound, the “Mass increase from 0-90% RH at 25° C.” value in data set [3] (GMS, data from FIG. 4 of present invention) was “+0.4%”. The “PXRD of the sample after the GMS experiment” value in data set [3] (after sorption/desorption cycle 0-90% RH, 25° C.) is “same PXRD”. The “solid form by PXRD after stress storage” value in data set [4] (25° C./60% RH), in data set [4] (30° C./65% RH), in data set [4] (40° C./75% RH), in data set [4] (RT/0% RH) and in data set [4] (RT/97% RH) was “Form A” in each case. In addition, the “phase change by PXRD at any stress condition” value in data set [4] (all temperature and humidity stress conditions of Table 3, 30 weeks) is “no phase change occurred”. In addition, the “solubility compared to crystalline Form I (in words)” value in data set [1] (acetate buffer pH 4.5, 37° C., FIG. 5) is recorded as “significantly increased solubility”; in data set [1] (phosphate buffer pH 6.8, 37° C., FIG. 6), “significantly increased solubility”. Also, the “equilibrium solubility after 24 hours compared to crystalline Form I” value in data set [1] (acetate buffer pH 4.5, 37° C.) is recorded as “about 3 fold”; in data set [1] (phosphate buffer pH 6.8, 37° C.), “about 2 fold”. Moreover, the “phase change by PXRD during the dissolution experiments” value in data set [1] was “no phase changes occurred”.
